# Where two headings read alike, the source gives them in different places.
# Key:
# [1] = Cytotoxic concentration (Example 2); format: cell-based; details: human, SupT1 cells; read-out: cytotoxic concentration (CC50)
# CD4 = CD4 (Homo sapiens, UniProt P01730); assay: Intracellular CD4 staining; format: cell-based; set-up: To study the effect of the CADA derivatives on surface CD4 antigen expression, MT-4 and SupT1 cells were incubated; endogenous in cells; host or cells: MT-4, SupT1, PBMC; details: SupT1 cells, CADA 3.2 μM, 4 days; untreated 97.3%
# Procedure: FIGS. 3A-3B. Intracellular CD4 staining in SupT1 cells after incubation with CADA hydrochloride (3.2 μM) for 4 days. (A) The intracellular CD4 expression of SupT1 cells cultured in medium alone and (B) treated with CADA for 4 days.
# The effect of CADA on the intracellular presence of CD4 was also investigated. […] Similar results were also obtained in MT-4 cells and in PBMCs, and with two other anti-CD4 mAbs (OKT4A and OKT4).
# HIV-1 strain IIIB = assay: Anti-HIV-1 assay (p24 Ag ELISA); format: cell-based; details: Human immunodeficiency virus 1, IIIB, read-out: IC50 against HIV-1 IIIB
# Procedure: (§1) The antiviral activity of CADA against HIV-1 and RHV-7 was investigated. PBMCs and […] cell-depleted PBMCs (removed with CD8 magnetic beads; Dynal AS, Oslo, Norway), previously activated with purified PHA (2 μg/ml) and rhIL-2 (1 ng/ml) for 3 days, were pelleted and exposed to HIV-1 (1 ng p24 Ag per 10^6 cells) for 2 hours at 370C. Then the cells were washed three times with warm medium and cultured in complete medium containing rhIL-2 (1 ng/ml) in the presence or absence of different concentrations of CADA hydrochloride. The anti-HIV-1 assays were also performed in MT-4 and SupT1 cells. CADA hydrochloride was diluted in the plates, then the MT-4 cells or SupT1 cells were added and finally the T-tropic HIV-1 strains. The supernatant was collected at day 5 for MT-4 cells, day 8 for SupT1 cells and day 12 for PBMCs, and stored at −20° C. and analyzed for HIV-1 core antigen by p24 Ag ELISA (NEN, Brussels, Belgium). The SupT1 cells were refreshed on day 4, and half of the medium and cells were replaced and fresh CADA-free medium was added. For the PBMCs, fresh culture medium was added at day 6 containing rhIL-2 (but no CADA). For the anti-HHV-7 assays in PBMCs, CADA hydrochloride was diluted in a plate, 2×10˜cells were added and then HHV-7 (KHR strain) was added in complete medium containing rhIL-2 (1 ng/ml). Fresh culture medium was added again at day 6 containing rhIL-2 (but no CADA). The same infection protocol was used for the SupT1 cells, but without rhIL-2. The SupT1 cells were refreshed on day 4 and day 8, half of the medium and the cells were replaced, and fresh medium without CADA was added. The HHV-7 antigen expression was monitored (at day 12) with a specific mAb to HHV-7 (RK-4) (Advanced Biotechnologies, Columbia, Md.) by flow cytometry, as described previously (Thang, Y., et al., Antiviral Res. 43:23-35 (1999)).
# [2] = test system: CCR5-using (R5) HIV-1 strain BaL; assay: Anti-HIV-1 assay (p24 Ag ELISA); format: cell-based; details: Human immunodeficiency virus 1, BAL, PBMC; read-out: IC50 against HIV-1 BaL
# Procedure: as §1
# [3] = Cytotoxic concentration (Example 2); format: cell-based; details: human, PBMC
# CD26 = assay: Cell surface antigen expression by flow cytometry (Table 2); format: cell-based, human; details: CADA 16 μM, 4 days, percentage of positive cells, unit not given
# Procedure: (§2) Expression of various other surface antigens was also examined in MT-4 cells, SupT1 cells and PBMCs after incubation with CADA (16 μM) or CADA-free medium at 37° C. for 4 days. After washing with phosphate-buffered saline (PBS) containing 2% FCS(fetal calf serum), the cells were incubated with mAb (as indicated in Table 1) for 20 min at 4° C. Then the cells were washed, fixed with 1% formaldehyde and analyzed by flow cytometry. All mAbs were purchased from Becton-Dickinson (Erembodegem, Belgium).
# CD11b = assay: as above; format: cell-based, human; details: CADA 16 μM, 4 days, percentage of positive cells, unit not given
# Procedure: as §2
# CD45RA = assay: as above; format: cell-based, human; details: CADA 16 μM, 4 days, percentage of positive cells, unit not given
# Procedure: as §2
# [4] = Cytotoxic concentration (Example 2); format: cell-based; details: human, MT-4 cells; read-out: cytotoxic concentration (CC50)
# [5] = test system: 6 different primary HIV-1 isolates; assay: Activity against primary HIV-1 isolates in PBMCs; format: cell-based; details: read-out: activity against primary HIV-1 isolates, range
# HIV-1 strain RF = assay: Anti-HIV-1 assay (p24 Ag ELISA); format: cell-based; details: for IC50: read-out: IC50 against HIV-1 RF; for p24 viral core antigen in supernatant: MT-4, RF
# Procedure: as §1
# Table 4 presents the results for MT-4 cells pretreated with CADA for 1 day at 8.1 μM and then infected with the HIV-1 strain NL4.3 or RF in the presence or absence of CADA. […] As three CD4 binding events are needed to efficiently activate HIV-1 Env trimers (Layne, S. P., et al., Nature 346: 602-605 (1990)), multimeric CD4 binding is required for HIV infection, further confirming that receptor density plays a crucial role in the efficiency of viral infectivity (Platt, E. J., et al., J. Virol. 71: 883-890 (1997)). […] Primary HIV isolates seem to be much more dependent on the level of CD4 expression (Kabat; D., et al., J. Virol. 68:2570-2577 (1994)). […] Although CD4-independent viruses are described (Hofflian, T. L., et al., Proc. Natl. Acad. Sci. U.S.A. 96: 63 59-6364 (1999)), these are much more sensitive to neutralization by antibodies, which explains the rarity of CD4-independent wild-type HIV variants (Kolchinski, P., et al., J. Virol. 75: 204 1-2050 (2001)).
smiles,measurement,setting,value
C=C1CN(S(=O)(=O)c2ccc(C)cc2)CCCN(Cc2ccccc2)CCCN(S(=O)(=O)c2ccc(C)cc2)C1 [CADA],CC50,[1],185 µM
same,percentage of intracellular CD4 expression,CD4,1.3%
same,IC50,"HIV-1 strain IIIB; MT4, MT-4 cells",0.3 µM
same,IC50,HIV-1 strain IIIB; PBMC,0.6 µM
same,IC50,"HIV-1 strain IIIB; SUP-T1, SupT1 cells",0.9 µM
same,IC50,[2],0.8 µM
same,CC50,[3],73 µM
same,CD26 cell surface antigen expression,CD26; MT-4 T-cells,3.2
same,CD26 cell surface antigen expression,CD26; PBMCs,3.2
same,CD26 cell surface antigen expression,CD26; SupT1 T-cells,0.3
same,CD11b cell surface antigen expression,CD11b; MT-4 T-cells,9.7
same,CD11b cell surface antigen expression,CD11b; PBMCs,12.3
same,CD11b cell surface antigen expression,CD11b; SupT1 T-cells,0.6
same,CD45RA cell surface antigen expression,CD45RA; MT-4 T-cells,2.0
same,CD45RA cell surface antigen expression,CD45RA; PBMCs,64.3
same,CD45RA cell surface antigen expression,CD45RA; SupT1 T-cells,0.5
same,CC50,[4],134 µM
same,IC50,[5],0.002 to 2.3 µM
same,IC50,"HIV-1 strain RF; Human immunodeficiency virus 1, MT4, MT-4 cells",0.9 µM
same,IC50,"HIV-1 strain RF; Human immunodeficiency virus 1, PBMC",1.9 µM
same,IC50,"HIV-1 strain RF; Human immunodeficiency virus 1, SUP-T1, SupT1 cells",1.8 µM
same,p24 viral core antigen in supernatant,"HIV-1 strain RF; cells pre-treated with CADA hydrochloride 8.1 μM 24 hours, medium without CADA after infection, untreated control 100002",42853 pg/mL
same,p24 viral core antigen in supernatant,"HIV-1 strain RF; not pre-treated, CADA 0.13 μM",75118 pg/mL
same,p24 viral core antigen in supernatant,"HIV-1 strain RF; not pre-treated, CADA 0.6 μM",56139 pg/mL
same,p24 viral core antigen in supernatant,"HIV-1 strain RF; not pre-treated, CADA 3.2 μM",<5 pg/mL
same,p24 viral core antigen in supernatant,"HIV-1 strain RF; pre-treated (CADA 8.1 μM, 24 hours), CADA 0.13 μM after infection",35894 pg/mL
same,p24 viral core antigen in supernatant,"HIV-1 strain RF; pre-treated (CADA 8.1 μM, 24 hours), CADA 0.6 μM after infection",<5 pg/mL
same,p24 viral core antigen in supernatant,"HIV-1 strain RF; pre-treated (CADA 8.1 μM, 24 hours), CADA 3.2 μM after infection",<5 pg/mL
